Test [1] has as its system Mus musculus. Put plainly: Tested in vivo against mouse graft-versus-host disease(GVHD) for survival (mean) after daily administration of 0.3 mg/kg (i.p.) using group of 8 mice/dose for 10 days. Conditions: route intraperitoneal. The format is functional.
Test [2] deals with Mus musculus. The test is described as follows: Tested in vivo against mouse graft-versus-host disease(GVHD) for survival (mean) after daily administration of 3 mg/kg (i.p.) using group of 8 mice/dose for 10 days. The format is functional. The note with it: route intraperitoneal.
Test [3] has as its system Rattus norvegicus. Put plainly: The compound was tested in vivo against heart transplanted rat for survival (mean) after daily administration of 6 mg/kg(ip) for 10 days. The format is functional.
Test [4] deals with Rattus norvegicus. Put plainly: The compound was tested in vivo against heart transplanted rat for survival (mean) after daily administration of 2.5 mg/kg(ip) for 10 days. The format is functional.
In test [5] the test system is Rattus norvegicus. The test is described as follows: The compound was tested in vivo against heart transplanted rat for survival (mean) after daily administration of 6 mg/kg(ip) for 10 days.

As to `CC(CCCNC(=O)CC(=O)NCCCCCCN=C(N)N)NCCCN` (configuration not stated), the Mean survival in the test with Mus musculus [1] was found to be 11 days; in the test on Mus musculus [2], 14 days.
Take `CCC(N)CCNCCCCNC(=O)OCC(=O)NCCCCCCN=C(N)N` (configuration not stated): the Mean survival in the test with Mus musculus [1] came to 16 days; with Mus musculus [2], 21 days.
Turning to `NC(N)=NCCCCCCNC(=O)COC(=O)NCCCCNCCC(N)c1ccccc1` (configuration not stated), the Mean survival in the test with Mus musculus [1] and in the test on Mus musculus [2] was 15 days each time.
As to `NCCCCNC(=O)OCC(=O)NCCCCCCN=C(N)N`, the Mean survival in the test on Mus musculus [1] and in the test on Mus musculus [2] was 14 days each time.
In the case of `C[C@@H](N)CCNCCCCNC(=O)CC(=O)NCCCCCCN=C(N)N`, the Mean survival in the test with Mus musculus [1] was determined as 26 days; in the test with Rattus norvegicus [3], 68 days; in the test on Mus musculus [2], 49 days.
Consider `CC(C)(N)CCNCCCCNC(=O)CC(=O)NCCCCCCN=C(N)N`, for which the Mean survival in the test with Mus musculus [1] and with Mus musculus [2] was 15 days in each case.
As to `C[C@H](N)CCNCCCCNC(=O)CC(=O)NCCCCCCN=C(N)N`, in the test with Mus musculus [2], the Mean survival was determined as 17 days.
For the compound `NCCCNCCCCNC(=O)CC(=O)NCCCCCCN=C(N)N`, the Mean survival in the test on Mus musculus [1] came out at 17 days; with Rattus norvegicus [3] it was 9 days; in the test with Mus musculus [2], 52 days.
As to `CC(CCN)NCCCCNC(=O)CC(=O)NCCCCCCN=C(N)N` (configuration not stated), the Mean survival with Mus musculus [1] is 11 days; in the test on Mus musculus [2] it was 12 days.
With `C[C@H](N)CCNCCCCNC(=O)OCC(=O)NCCCCCCN=C(N)N`, the values for the Mean survival in the test on Mus musculus [1], in the test with Rattus norvegicus [3] and in the test on Mus musculus [2] were 16 days, 9 days and 25 days, respectively.
As for `CC(N)CCNCCCCNC(=O)OCC(=O)NCCCCCCN=C(N)N` (configuration not stated), the results for the Mean survival in the test on Mus musculus [1], in the test on Rattus norvegicus [4] and with Mus musculus [2] were 53 days, 56 days and 57 days, respectively.
For the compound `CN(CCCN)CCCCNC(=O)CC(=O)NCCCCCCN=C(N)N`, the Mean survival with Mus musculus [1] and in the test on Mus musculus [2] was 14 days in each case.
Regarding `N=C(N)NCCCCCCNC(=O)COC(=O)NCCCCNCCCN` [TRESPERIMUS], the Mean survival is 15 days with Mus musculus [1], 16 days in the test on Rattus norvegicus [4] and 58 days in the test on Mus musculus [2].
With `CC(CN)CNCCCCNC(=O)CC(=O)NCCCCCCN=C(N)N` (configuration not stated), the Mean survival in the test on Mus musculus [1] and with Mus musculus [2] was 18 days each time.
On to `N=C(N)NCCCCCCC(=O)NC(O)C(=O)NCCCCNCCCN` (configuration not stated) [GUSPERIMUS], for which the Mean survival with Rattus norvegicus [5] was determined as 38 days.
For `CC(CCCNCCCN)NC(=O)CC(=O)NCCCCCCN=C(N)N` (configuration not stated), the Mean survival with Mus musculus [2] turned out to be 21 days.
In the case of `C[C@@H](N)CCNCCCCNC(=O)OCC(=O)NCCCCCCNC(=N)N` [ANISPERIMUS], the Mean survival in the test on Mus musculus [1] was determined as 60 days; in the test on Rattus norvegicus [4] it was 80 days; in the test with Mus musculus [2], 60 days.
For `NC(N)=NCCCCCCNC(=O)COC(=O)NCCCCNCCC(N)C(F)(F)F` (configuration not stated), the Mean survival turned out to be 16 days in the test with Mus musculus [1] and 17 days in the test with Mus musculus [2].
Consider `CC(N)CCNCCCCNC(=O)CC(=O)NCCCCCCN=C(N)N` (configuration not stated), for which the Mean survival in the test with Mus musculus [1] is 17 days; in the test on Rattus norvegicus [3] it was 24 days; with Mus musculus [2], 60 days.
